This note sets out measurements from patent US12691111B2, “SETD2 inhibitors and related methods and uses, including combination therapies” (EPIZYME, INC., priority 2020, dated 2026).

One experiment concerns KMS-28-BM. As to the kind of experiment: 7-day co-treatment combination study, CellTiter-Glo, Loewe Volume. It is filed as cell-based. The settings on record: KMS-28-BM multiple myeloma cells, 7-day co-treatment with Cpd. No. 15. The protocol: (§1) Multiple myeloma (MM) and mantle cell lymphoma (MCL) Cell line cultures in log-linear growth rate were treated with combinations of Cpd. No. 15 and combination partners according to a co-treatment model. […] No. 15 and the combination partner. […] Each combination was tested in quadruplicate wells. The final concentration of DMSO (vehicle) in the assay was 0.1% v/v. Fifty microliters of cell line suspension were directly dispensed to the assay-ready plates with an automated multichannel dispenser on to 384-well assay-ready plates. Assay plates were incubated for seven days in a humidified atmosphere of 5% CO2 at 37° C. Quantification of the effect of single agents or combinations on cell viability was performed through measurement of cellular adenosine triphosphate (ATP) using a CellTiter-Glo® (Promega, MadisonWIs.) Luminescent Cell Viability Assay. Luminescence was detected using a SpectraMax M5 microplate reader (Molecular Devices, Sunnyvale, CA). Concentration response plots were generated in GraphPad Prism version 7.0 for Windows, GraphPad Software, (La Jolla, CA) and curves fitted to a four-parameter logistic model with variable slope. Percent of inhibition was calculated at each treatment concentration.
(§2) The results of these combinations are summarized in Tables A and B (multiple myeloma cell lines), and Tables C and D (mantle cell lymphoma cell lines).
A general note: ATP-based viability assays read luminescence as a measure of living cells.

The next experiment relates to KMS34. The experiment is described as above. The format is cell-based. The conditions noted are these: KMS34 multiple myeloma cells, 7-day co-treatment with Cpd. No. 15. As for the experimental part:
as §1, §2

The subject of a further experiment is L363. The description is as above. The format is cell-based. The conditions noted are these: L363 multiple myeloma cells, 7-day co-treatment with Cpd. No. 15. The protocol: as §1, §2
The next experiment concerns MM1.S. Described as above. It is filed as cell-based. The settings on record: MM1.S multiple myeloma cells, 7-day co-treatment with Cpd. No. 15. As for the experimental part: as §1, §2
The test system of a further experiment is NCI-H929. The description is as above. The format is cell-based. The settings on record: NCI-H929 multiple myeloma cells, 7-day co-treatment with Cpd. No. 15. As for the experimental part: as §1, §2
The subject of a further experiment is RPMI-8226. The description is as above. The format is cell-based. The conditions noted are these: RPMI-8226 multiple myeloma cells, 7-day co-treatment with Cpd. No. 15. As for the experimental part: as §1, §2
Another experiment relates to KMS-11. Described as above. The conditions noted are these: for Combination effect (Loewe Volume class) of Cpd. No. 15 with combination partner: KMS-11 multiple myeloma cells, 7-day co-treatment with Cpd. No. 15.
In the next experiment the test system is GRANTA519. Described as above. The format is cell-based. The conditions noted are these: GRANTA519 mantle cell lymphoma cells, 7-day co-treatment with Cpd. No. 15. The protocol:
as §1, §2

A further experiment has as its system JEKO1. Described as above. The format is cell-based. The settings on record: JEKO1 mantle cell lymphoma cells, 7-day co-treatment with Cpd. No. 15. The protocol: as §1, §2
The test system of the next experiment is JVM2. Described as above. The conditions noted are these: JVM2 mantle cell lymphoma cells, 7-day co-treatment with Cpd. No. 15. It is filed as cell-based. The protocol: as §1, §2
The subject of another experiment is MAVER1. The description is as above. The settings on record: MAVER1 mantle cell lymphoma cells, 7-day co-treatment with Cpd. No. 15. The format is cell-based. The protocol: as §1, §2
The next experiment relates to MINO. The experiment is described as above. The format is cell-based. The conditions noted are these: MINO mantle cell lymphoma cells, 7-day co-treatment with Cpd. No. 15. As for the experimental part:
as §1, §2

The next experiment has as its system REC1. The experiment is described as above. The conditions noted are these: REC1 mantle cell lymphoma cells, 7-day co-treatment with Cpd. No. 15. The format is cell-based. As for the experimental part:
as §1, §2

The next experiment relates to Z138. Described as above. The format is cell-based. The settings on record: Z138 mantle cell lymphoma cells, 7-day co-treatment with Cpd. No. 15. As for the experimental part: as §1, §2
The next experiment deals with KARPAS422. As to the kind of experiment: Pre-treatment model combination study (4 days pre-treatment, 3 days co-treatment), CellTiter-Glo, Loewe Volume. It is filed as cell-based. The conditions noted are these: KARPAS422 diffuse large B-cell lymphoma cells, 4 days Cpd. No. 15 pre-treatment then 3 days co-treatment. The protocol:
(§3) Diffuse large B-cell lymphoma cells were seeded into flasks and pre-treated with several concentrations of Cpd. No. 15 or DMSO. Cells were then split adjusted to initial density, replated and co-treated Cpd. No. 15 and a second agent of interest using the HP D300 digital dispenser (Tecan Group, Mannedorf, Switzerland) in tissue culture treated solid white 384-well plates for additional 3 days. […] After 3 days cotreatment, cell viability was measured via ATP content using CellTiter-Glo® (Promega, Madison, WI) and luminescence was detected using a SpectraMax M5 microplate reader (Molecular Devices, Sunnyvale, CA).
(§4) Diffuse large B-cell lymphoma (DLBCL) cell line cultures in log-linear growth rate were treated with combinations of Cpd. No. 15 and combination partners according to a pre-treatment model. Cells were seeded first into 8 flasks and pre-treated with 7 different concentrations of Cpd. […] Cells were harvested from each flask and re-seeded onto the corresponding 384-well plate with the same concentration of Cpd. No. 15. and 9 concentrations of its combination partner in triplicate wells. The final concentration of DMSO (vehicle) in the assay was 0.1% v/v. Fifty microliters of cell line(s) suspension were directly dispensed to the assay-ready plates with an automated multichannel dispenser on to 384-well assay-ready plates. Assay plates were incubated for three days in a humidified atmosphere of 5% CO2 at 37° C. Quantification of the effect of single agents or combinations on cell viability was performed through measurement of cellular adenosine triphosphate (ATP) using CellTiter-Glo® (Promega, Madison, WI). Luminescence was detected using a SpectraMax M5 microplate reader (Molecular Devices, Sunnyvale, CA). Concentration response plots were generated in GraphPad Prism version 8.0 for Windows, GraphPad Software, (La Jolla, CA) and curves fitted to a four-parameter logistic model with variable slope. Percent of inhibition was calculated at each treatment concentration.

The next experiment concerns SUDHL-2. Described as above. It is filed as cell-based. The conditions noted are these: SUDHL-2 diffuse large B-cell lymphoma cells, 4 days Cpd. No. 15 pre-treatment then 3 days co-treatment. As for the experimental part:
as §3, §4

The subject of a further experiment is SUDHL-6. The description is as above. It is filed as cell-based. The conditions noted are these: SUDHL-6 diffuse large B-cell lymphoma cells, 4 days Cpd. No. 15 pre-treatment then 3 days co-treatment. The protocol:
as §3, §4

In another experiment the test system is WSUDLCL2. The description is as above. The format is cell-based. The conditions noted are these: WSUDLCL2 diffuse large B-cell lymphoma cells, 4 days Cpd. No. 15 pre-treatment then 3 days co-treatment. As for the experimental part:
as §3, §4

On to `Cc1nc2cccc(N)c2c(=O)n1C1CCC(=O)NC1=O` (centres unmarked) [CC-122], for which the “Combination effect (Loewe Volume class) of Cpd. No. 15 with combination partner” value with KMS-28-BM is “Additivity (between 1 and −1: additivity)”; in the experiment on KMS34 it was “Synergy (VLoewe>1: synergy)”; in the experiment on L363, “Additivity (between 1 and −1: additivity)”; in the experiment on MM1.S it was “Additivity (between 1 and −1: additivity)”; in the experiment on NCI-H929, “Synergy (VLoewe>1: synergy)”; in the experiment with RPMI-8226 it was “Additivity (between 1 and −1: additivity)”. Besides, in the experiment on KMS-11, the “Combination effect (Loewe Volume class) of Cpd. No. 15 with combination partner” value is “Synergy (VLoewe>1: synergy)”.
Turning to `CC(=O)N1CCN([C@H]2CCC[C@@H](NC(=O)c3cc4c(F)ccc(C)c4[nH]3)C2)CC1` [Cpd. No. 15, N-((1R,3S)-3-(4-acetylpiperazin-1-yl)cyclohexyl)-4-fluoro-7-methyl-1H-indole-2-carboxamide], the “anti-proliferative activity of Cpd. No. 15 combined with pomalidomide” value in the experiment with KMS-11 (KMS-11 cells, 7-day co-treatment study, combined with pomalidomide (FIG. 3)) is on record as “synergistic”.
Take `C[C@@H]1C[C@H]2[C@@H]3CCC4=CC(=O)C=C[C@]4(C)[C@@]3(F)[C@@H](O)C[C@]2(C)[C@@]1(O)C(=O)CO` [Dexamethasone, dexamethasone]: the “Combination effect (Loewe Volume class) of Cpd. No. 15 with combination partner” value is “Additivity (between 1 and −1: additivity)” in the experiment with KMS-28-BM; “Synergy (VLoewe>1: synergy)” in the experiment on KMS34; “Synergy (VLoewe>1: synergy)” in the experiment on L363; “Additivity (between 1 and −1: additivity)” in the experiment on MM1.S; “Synergy (VLoewe>1: synergy)” in the experiment on NCI-H929; “Synergy (VLoewe>1: synergy)” with RPMI-8226. Also, the “Combination effect (Loewe Volume class) of Cpd. No. 15 with combination partner” value in the experiment with KMS-11 is listed as “Synergy (VLoewe>1: synergy)”.
On to `CCN(c1cc(C#CCN2CCOCC2)cc(C(=O)NCc2c(C)cc(C)[nH]c2=O)c1C)[C@H]1CC[C@H](N(C)CCOC)CC1` [EPZ-11989], for which the “Combination effect (Loewe Volume class) of Cpd. No. 15 with combination partner” value in the experiment with KMS-28-BM is “Additivity (between 1 and −1: additivity)”; in the experiment with NCI-H929, “No Effect”; with KMS-11, “Additivity (between 1 and −1: additivity)”.
Turning to `Cc1[nH]c2ccccc2c1CCNCc1ccc(/C=C/C(=O)NO)cc1` [Panobinostat, panobinostat], the “Combination effect (Loewe Volume class) of Cpd. No. 15 with combination partner” value is “Additivity (between 1 and −1: additivity)” in the experiment with KMS-28-BM; “Synergy (VLoewe>1: synergy)” in the experiment with KMS34; “Additivity (between 1 and −1: additivity)” in the experiment with L363; “Additivity (between 1 and −1: additivity)” with MM1.S; “Synergy (VLoewe>1: synergy)” in the experiment on NCI-H929; “Additivity (between 1 and −1: additivity)” in the experiment on RPMI-8226. Besides, the “Combination effect (Loewe Volume class) of Cpd. No. 15 with combination partner” value with KMS-11 was “Additivity (between 1 and −1: additivity)”.
In the case of `Nc1cccc2c1C(=O)N(C1CCC(=O)NC1=O)C2=O` (centres unmarked) [Pomalidomide, pomalidomide], the “Combination effect (Loewe Volume class) of Cpd. No. 15 with combination partner” value in the experiment on KMS-28-BM was “Additivity (between 1 and −1: additivity)”; with KMS34, “Synergy (VLoewe>1: synergy)”; in the experiment with L363, “Additivity (between 1 and −1: additivity)”; in the experiment on MM1.S it was “Additivity (between 1 and −1: additivity)”; in the experiment on NCI-H929, “Synergy (VLoewe>1: synergy)”; in the experiment on RPMI-8226, “Synergy (VLoewe>1: synergy)”. Besides, in the experiment on KMS-11, the “Combination effect (Loewe Volume class) of Cpd. No. 15 with combination partner” value is “Synergy (VLoewe>1: synergy)”.
Turning to `C[C@]12C=CC(=O)C=C1CC[C@@H]1[C@@H]2[C@@H](O)C[C@@]2(C)[C@H]1CC[C@]2(O)C(=O)CO` [Prednisolone, prednisolone], the “Combination effect (Loewe Volume class) of Cpd. No. 15 with combination partner” value with GRANTA519 was “Synergy (VLoewe>1: synergy)”; in the experiment on JEKO1, “Additivity (between 1 and −1: additivity)”; in the experiment with JVM2 it was “Additivity (between 1 and −1: additivity)”; with MAVER1, “Synergy (VLoewe>1: synergy)”; in the experiment with MINO, “Additivity (between 1 and −1: additivity)”; with REC1, “Synergy (VLoewe>1: synergy)”. For the same compound, the “Combination effect (Loewe Volume class) of Cpd. No. 15 with combination partner” value in the experiment on Z138 is “Additivity (between 1 and −1: additivity)”; with KARPAS422 it was “Additivity (between 1 and −1: additivity)”; with SUDHL-2 it was “Synergy (VLoewe>1: synergy)”; in the experiment with SUDHL-6, “Synergy (VLoewe>1: synergy)”; in the experiment on WSUDLCL2, “Antagonism (<−1: antagonistic)”.
Consider `O=C(/C=C\n1cnc(-c2cc(C(F)(F)F)cc(C(F)(F)F)c2)n1)NNc1cnccn1` [Selinexor, selinexor], for which the “Combination effect (Loewe Volume class) of Cpd. No. 15 with combination partner” value is “Additivity (between 1 and −1: additivity)” with KMS-28-BM; “Synergy (VLoewe>1: synergy)” with KMS34; “Additivity (between 1 and −1: additivity)” with L363; “Additivity (between 1 and −1: additivity)” with MM1.S; “Synergy (VLoewe>1: synergy)” in the experiment on NCI-H929; “Additivity (between 1 and −1: additivity)” with RPMI-8226. Moreover, the “Combination effect (Loewe Volume class) of Cpd. No. 15 with combination partner” value in the experiment with KMS-11 was “Additivity (between 1 and −1: additivity)”.
